Results: patent US10966937B2, “Compositions and methods for delivery of polyunsaturated fatty acid derivatives and analogs” (Cytometix, Inc., priority 2015, dated 2021)

Experiments:
[1] = Plasma exposure of CMX-020 from enterically coated softgels with DHA TG vehicle; type: in vivo, male cynomolgus monkey
Experimental: In FIG. 5, groups of male cynomolgus monkey were administered CMX-020 (40 mg total dose) in enterically coated softgels at 10, 5 and 2.5% (w/w) using high purity DHA in triglyceride form as the delivery vehicle. CMX-020 was measured through time in plasma to determine its concentrations. FIG. 5 illustrates that the systemic exposure of CMX-020 in DHA TG at various concentrations provides suitable systemic exposure for more than 12 hours. In this study, the optimal concentration was 5% displaying an absolute bioavailability of 20%.

[2] = test system: post-operative pain model; experiment: Post-operative pain model (hindpaw incision), mechanical allodynia (Von Frey filament); type: in vivo, male Sprague Dawley rats; conditions: CMX-020 intraduodenally at various doses in DHA TG, 3 hours post-surgery
Experimental: In FIG. 7, groups of male Sprague Dawley rats were administered CMX-020 intraduodenally at various doses using high purity DHA in triglyceride form as the delivery vehicle. CMX-020 was measured in plasma to determine its concentrations immediately after the efficacy endpoint. Prior to administration, the rat's hindpaw was surgically incised and sutured. 3 hours post-surgery the rats were subjected to mechanical allodynia (Von Frey filament) assessment to quantify the analgesic effect of CMX-020 (% MPE=post drug threshold−baseline threshold/cutoff threshold−baseline threshold×100).

[3] = test system: rodent model of fibromyalgia; experiment: Rodent model of fibromyalgia (reserpine), mechanical allodynia, CMX-020 and Pregabalin; type: in vivo, male Sprague Dawley rats
[4] = test system: rodent model of osteoarthritis; experiment: Rodent model of osteoarthritis (MIA), mechanical allodynia, CMX-020 and Tramadol; type: in vivo, male Sprague Dawley rats
[5] = test system: rodent model of spinal nerve ligation; experiment: Spinal nerve ligation model, mechanical allodynia, CMX-020 and Duloxetine; type: in vivo, male Sprague Dawley rats
Experimental: In FIGS. 14 and 15, groups of male Sprague Dawley rats underwent a spinal nerve ligation method of the left L5 and L6 spinal nerves, inducing a model of peripheral neuropathic pain. 1 weeks later treatment with CMX-020 and Duloxetine were administered either alone or in combination at various combinational doses and efficacy was tested using mechanical allodynia pain thresholds (Von Frey Filaments, up-down method). The method of Chou-Talalay and CompuSyn computer software were used to automate analysis of dose effect data for each individual drug and their combination. […] The fold reduction of Duloxetine in combination with CMX-020 is greater than 2-fold in efficacy ranges at and greater than 20% (FIG. 15).

[6] = test system: rodent model of Chemotherapeutic induced pain; experiment: Chemotherapeutic (paclitaxel) induced pain model, mechanical allodynia, CMX-020 and Duloxetine; type: in vivo, male Sprague Dawley rats
Experimental: In FIGS. 16 and 17, groups of male Sprague Dawley rats received four daily consecutive injections of paclitaxel (1 mg/kg, ip), followed by a second series of four daily injections one week after the first injection, inducing a model of chemotherapeutic-induced peripheral neuropathy Animals were tested 2-3 days after receiving the last injection of paclitaxel with treatment of CMX-020 and Duloxetine administered either alone or in combination at various combinational doses and efficacy was tested using mechanical allodynia pain thresholds (Von Frey Filaments, up-down method). The method of Chou-Talalay and CompuSyn computer software were used to automate analysis of dose effect data for each individual drug and their combination. […] The fold reduction of Duloxetine in combination with CMX-020 is greater than 2-fold in efficacy ranges at and greater than 20% (FIG. 17).

clinical = conditions: both, human, in vivo, po
[7] = efficacy ranges at and greater than 20%

SMILES: CCCCCC(=O)N(CC/C=C\C/C=C\C/C=C\CCCC(=O)NC1CC1)C(C)C [CMX-020]
- duration of suitable systemic exposure ([1]; CMX-020 40 mg total dose at 10, 5 and 2.5% (w/w) in DHA TG, monkey): more than 12 hours
- bioavailability ([1]; male, cynomolgus monkey, plasma, oral, CMX-020 40 mg total dose, 5% (w/w) in DHA TG, read-out: absolute bioavailability): 20%
- relation of systemic exposure to analgesic efficacy (% MPE) [2]: positively correlates
- analgesic effect of the combinational therapy (isobologram) ([3]; co-administered with Pregabalin): greater than a simple additive effect
- analgesic effect of the combinational therapy (isobologram) ([4]; in combination with Tramadol, 2 weeks after MIA): greater than a simple additive effect
- analgesic effect of the combinational therapy (isobologram) ([5]; in combination with Duloxetine): greater than a simple additive effect
- analgesic effect of the combinational therapy (isobologram) ([6]; in combination with Duloxetine): greater than a simple additive effect
- Tmax (clinical): 3.5 to 5.5 h

SMILES: CNCC[C@H](Oc1cccc2ccccc12)c1cccs1 [Duloxetine, reference compound]
- fold reduction of Duloxetine in combination with CMX-020 [5, 7]: greater than 2 fold
- fold reduction of Duloxetine in combination with CMX-020 [6, 7]: greater than 2 fold

SMILES: CC(C)C[C@H](CN)CC(=O)O [Pregabalin, reference compound]
- fold reduction of Pregabalin in combination with CMX-020 ([3]; efficacy ranges at and greater than 35%): greater than 2 fold

SMILES: COc1cccc(C2(O)CCCCC2CN(C)C)c1 (stereo not drawn) [Tramadol, reference compound]
- fold reduction of Tramadol in combination with CMX-020 ([4]; efficacy ranges at and greater than 10%): greater than 2 fold
